Where “and” joins values, the source holds several entries; their conditions need not be identical. Identical values can stand only once. Like-named read-outs stand apart in the source and are kept apart here.
Key:
[1] = tested on: E. coli strain MCM597; assay: Nitrogen sources affecting isoprene production (Biolog PM3B plates); format: cell-based; settings: 0.5% glucose as sole carbon source, no yeast extract; p<0.1
[2] = tested on: E. coli strain MCM597; assay: Carbon sources useful for the production of isoprene (Biolog PM1 plate); format: cell-based; settings: 0.2% yeast extract, compound as carbon source; normalized to α-D-glucose
[3] = biological target: T1, Dxr from E. coli (Escherichia coli, UniProt P45568); assay: Dxr inactivation by incubation with DMAPP and HDMAPP; format: biochemical; settings: purified Dxr from E. coli
T1 construct: His tag (pET15b) (N); made in house; host or cells: E. coli BL21(λDE3)
T1 sequence (P45568 whole entry): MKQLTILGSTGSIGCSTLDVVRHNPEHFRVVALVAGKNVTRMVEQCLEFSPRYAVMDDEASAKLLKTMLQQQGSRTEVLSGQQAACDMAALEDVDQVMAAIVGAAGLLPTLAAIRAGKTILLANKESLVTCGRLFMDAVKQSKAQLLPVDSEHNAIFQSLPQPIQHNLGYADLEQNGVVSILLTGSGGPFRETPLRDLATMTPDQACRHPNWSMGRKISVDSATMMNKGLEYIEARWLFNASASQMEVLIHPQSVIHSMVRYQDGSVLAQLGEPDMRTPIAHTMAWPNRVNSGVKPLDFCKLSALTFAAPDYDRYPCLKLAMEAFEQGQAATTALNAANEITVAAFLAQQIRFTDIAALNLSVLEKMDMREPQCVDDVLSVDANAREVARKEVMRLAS
Description: The purified protein, 5 uM, was incubated at several concentration of DMAPP or HMBPP (Echelon Bioscience, Salt Lake City, Utah) in buffer consisting of 100 mM Tris, 100 mM NaCl pH 8, 5 mM MgCl2, 0.2 mM NADPH, 0.2 mM DXP, and 250 nM DXR. D at 37° C. for two hour in a total volume of 50 uL. Dxr activity was measured periodically according to standard assay, see, e.g., Koppisch et al, Biochemistry, 41:236-43 (2002) with a 20-fold dilution of the inactivation reaction mixture. […] Where appropriate additional control activity assays were conducted in the presence of a 20-fold diluted concentration of inactivators (DMAPP or HMBPP).

[4] = tested on: E. coli strain MCM597; assay: Carbon sources affecting isoprene production during growth on glucose (Biolog PM1 and PM2A plates); format: cell-based; settings: 0.5% glucose, 0.2% yeast extract; normalized to control only fed glucose; p<0.1
[5] = tested on: dxr null E. coli BL21 strain; format: cell-based
[6] = tested on: REM A2—17 strain; assay: Specific productivity of isoprene of strain REM A2—17 in the presence and absence of fosmidomycin (headspace assay); format: cell-based, E. coli; settings: 2 mM fosmidomycin; for activity at 2000 µM: Escherichia coli, 0.75 h, read-out: fraction of isoprene produced during exposure to fosmidomycin relative to absence of the inhibitor (MVA-flux)
[7] = tested on: E. coli BL21 strain harboring the GI1.6-dxr locus; assay: Isoprene production with fosmidomycin in the growth media, GI1.6-dxr strain; format: cell-based; settings: 1 mM fosmidomycin in the growth media
[8] = tested on: REM A2—17 strain; assay: Accumulation of DXP and MVA pathway metabolites in REM A2—17 with and without fosmidomycin (LC-MS/MS); format: cell-based, E. coli; settings: 2 mM fosmidomycin, 45 min. incubation
[9] = tested on: strains REM H8—12 and REM I7—11; format: cell-based, E. coli
[10] = Flammability limits of isoprene (computer simulation and experimental testing); format: physicochemical
From the text: Thus, computer modeling and experimental testing were used to determine the flammability limits of isoprene (such as isoprene in the presence of O2, N2, CO2, or any combination of two or more of the foregoing gases) in order to ensure process safety. The flammability envelope is characterized by the lower flammability limit (LFL), the upper flammability limit (UFL), the limiting oxygen concentration (LOC), and the limiting temperature. For a system to be flammable, a minimum amount of fuel (such as isoprene) must be in the presence of a minimum amount of oxidant, typically oxygen. The LFL is the minimum amount of isoprene that must be present to sustain burning, while the UFL is the maximum amount of isoprene that can be present. Above this limit, the mixture is fuel rich and the fraction of oxygen is too low to have a flammable mixture. The LOC indicates the minimum fraction of oxygen that must also be present to have a flammable mixture. The limiting temperature is based on the flash point of isoprene and is that lowest temperature at which combustion of isoprene can propagate. These limits are specific to the concentration of isoprene, type and concentration of oxidant, inerts present in the system, temperature, and pressure of the system. […]

[11] = about 1 atmosphere and about 60° F.; cited from earlier work
[12] = approx. 45 minutes, unlabeled culture without tryptophan (FIG. 98)

Structure (SMILES)	specific isoprene production [1]	specific productivity of isoprene [4]	also measured
NC(N)=O [urea]	did not significantly change	–	–
CC(=O)N[C@H]1C(O)O[C@H](CO)[C@@H](O)[C@@H]1O (stereo partly drawn) [N-acetyl-D-glucosamine]	–	–	specific productivity of isoprene [2]: increasing
N[C@@H](CC(=O)O)C(=O)O [L-aspartic acid]	increasing	–	–
N[C@@H](Cc1c[nH]c2ccccc12)C(=O)O [L-tryptophan]	increasing	–	–
N[C@@H](CCC(=O)O)C(=O)O [L-glutamic acid]	increasing	–	–
C/C(=C\COP(=O)(O)OP(=O)(O)O)CO [HMBPP, 1-hydroxy-2-methyl-2-(E)-butenyl 4-diphosphate]	–	–	Dxr activity after incubation with the compound [3]: inactivated
O=NO [nitrite]	did not significantly change	–	–
NCCc1ccccc1 [phenylethylamine]	–	increasing	–
O=C(O)[C@@H](O)[C@H](O)[C@H](O)[C@@H](O)C(=O)O [mucic acid]	–	increasing	–
N[C@@H](Cc1ccccc1)C(=O)O [L-phenylalanine]	–	increasing	–
O=C(CO)[C@H](O)[C@H](O)[C@H](O)CO [D-psicose]	–	increasing	–
O=[N+]([O-])O [nitrate]	did not significantly change	–	–
O=C(O)[C@H](O)[C@@H](O)[C@H](O)[C@H](O)CO [D-gluconic acid]	–	increasing	–
O=C[C@H](O)[C@@H](O)[C@@H](O)[C@H](O)C(=O)O [D-galacturonic acid]	–	increasing	specific productivity of isoprene [2]: increasing
OC[C@H]1O[C@H](O)[C@H](O)[C@@H](O)[C@@H]1O [α-D-glucose]	–	–	specific productivity of isoprene [2]: increasing
NC(=O)[C@@H](O)[C@@H](O)[C@H](O)[C@@H](O)C=O [glucuronamide]	–	increasing	–
OC[C@H]1O[C@@](CO)(O[C@H]2O[C@H](CO)[C@@H](O)[C@H](O)[C@H]2O)[C@@H](O)[C@@H]1O [sucrose]	–	increasing	–
O=C[C@H](O)[C@@H](O)[C@H](O)[C@H](O)COP(=O)(O)O [D-glucose-6-phosphate]	–	–	specific productivity of isoprene [2]: increasing
O=C(CO)[C@@H](O)[C@H](O)[C@H](O)CO [D-fructose]	–	–	specific productivity of isoprene [2]: increasing
Nc1ncnc2nc[nH]c12 [adenine]	negatively affecting	–	–
N[C@@H](Cc1ccc(O)cc1)C(=O)O [L-tyrosine]	negatively affecting	–	–

Structure (SMILES)	specific isoprene production [1]	specific productivity of isoprene [4]	also measured
N [ammonia]	did not significantly change	–	–
OC[C@H]1O[C@@H](n2cnc3c(O)ncnc32)[C@H](O)[C@@H]1O [inosine]	increasing	increasing	–
O=C[C@@H](O)[C@@H](O)[C@H](O)[C@H](O)CO [D-mannose]	–	increasing	–
Nc1nc2c(ncn2[C@@H]2O[C@H](CO)[C@@H](O)[C@H]2O)c(=O)[nH]1 [guanosine]	increasing	–	–
CC(O)C(C)O (stereo not drawn) [2,3-butanediol]	–	increasing	–
O=CN(O)CCCP(=O)(O)O [fosmidomycin]	–	–	isoprene production [5]: same level of isoprene production; decrease in isoprene production with fosmidomycin (DXP-flux) ([6]; 1-13C glucose culture with 50 uM tryptophan (FIG. 98)): 51%; decrease in isoprene production with fosmidomycin (DXP-flux) ([6]; 1-13C glucose culture without tryptophan): 42% and 43%; decrease in isoprene production with fosmidomycin (DXP pathway contribution) ([6]; 3-13C glucose): 43% and ~42%; decrease in isoprene production with fosmidomycin (DXP pathway contribution) [6, 12]: ~48%; fraction of isoprene produced during exposure to fosmidomycin relative to absence of the inhibitor (MVA pathway contribution) [6, 12]: roughly 52%; fraction of isoprene produced during exposure to fosmidomycin relative to absence of the inhibitor (MVA pathway contribution) ([6]; approx. 45 minutes, unlabeled glucose (FIG. 96)): roughly 59%; decrease in isoprene production with fosmidomycin (DXP pathway contribution) ([6]; approx. 45 minutes, unlabeled glucose (FIG. 96, 97)): 41%; fraction of isoprene produced during exposure to fosmidomycin relative to absence of the inhibitor (MVA pathway contribution) ([6]; approx. 1 hour, 3-13C glucose (FIG. 99)): roughly 58%; activity at 2000 µM ([6]; approx. 45 minutes, 1-13C glucose culture with 50 uM tryptophan (FIG. 98)): 49%; activity at 2000 µM ([6]; approx. 45 minutes, 1-13C glucose culture without tryptophan (FIG. 98)): 57%; isoprene production [7]: undetectable level; DXP concentration [8]: significant increase; HDMAPP concentration [8]: decrease; concentration of MEP, CDP-ME and cMEPP [8]: drop; concentration of MVA [8]: did not change; decrease of the cumulative amount of IPP and DMAPP [8]: 55%
OC[C@@H](O)[C@@H](O)[C@H](O)[C@H](O)CO [D-mannitol]	–	–	specific productivity of isoprene [2]: increasing
C[C@@](O)(CCO)CC(=O)O [mevalonic acid, (R)-mevalonic acid]	–	–	isoprene specific productivity from mevalonate (m/z of 67) [9]: increased with increasing mevalonic acid concentration; specific productivity of isoprene from [U-13C]-glucose (m/z of 73) [9]: the same
O=C1O[C@H]([C@@H](O)CO)[C@@H](O)[C@@H]1O [L-galactonic acid-γ-lactone]	–	increasing	–
O=C(O)C[C@H](O)C(=O)O [L-malic acid]	–	increasing	–
NC(=O)C[C@H](N)C(=O)O [L-asparagine]	increasing	–	–
N[C@@H](CO)C(=O)O [L-serine]	increasing	–	–
C[C@@H](O)[C@H](N)C(=O)O [L-threonine]	increasing	–	–
C=CC(=C)C [isoprene, 2-methyl-1,3-butadiene]	–	–	limiting temperature [10]: about −54 °C; limiting oxygen concentration (LOC) ([10]; isoprene, O2, N2, and CO2 mixture at 40° C. and 1 atmosphere): 9.5 vol %
N[C@@H](C(=O)O)[C@@H](O)[C@H](O)[C@H](O)CO [D-glucosaminic acid]	–	increasing	–
OC[C@H]1O[C@@H](O[C@H]2[C@H](O)[C@@H](O)[C@H](O)O[C@@H]2CO)[C@H](O)[C@@H](O)[C@@H]1O [D-cellobiose]	–	increasing	–
NCCO [2-aminoethanol]	–	increasing	–
OC[C@H]1O[C@H](O[C@H]2O[C@H](CO)[C@@H](O)[C@H](O)[C@H]2O)[C@H](O)[C@@H](O)[C@@H]1O [D-trehalose]	–	–	specific productivity of isoprene [2]: increasing
CCC(=O)O [propionic acid]	–	increasing	–
CCO [ethanol]	–	–	limiting oxygen concentration (LOC) [11]: about 8.7 vol %; lower flammability limit (LFL) [11]: about 3.3 vol %
CSCC[C@H](N)C(=O)O [L-methionine]	negatively affecting	–	–

Source: patent US8507235B2, “Isoprene production using the DXP and MVA pathway” (Danisco US Inc., priority 2009, dated 2013)
